Data as given in EP4603105A1, “PHARMACEUTICAL COMPOSITION CONTAINING CYCLIC COMPOUND HAVING SELECTIVE KRAS INHIBITORY EFFECT AGAINST HRAS AND NRAS” (CHUGAI SEIYAKU KABUSHIKI KAISHA, priority 2022, dated 2024).
*1 amine or outer side, *2 acyl side, *3 side chain or, on linkers, in order; H or OH if unused. Where a SMILES comes first, the peptide text is derived from it. Bridges are numbered along the chain shown (N, C = ends). [ ]: non-standard residue; d: D form. The star is where a group is joined. hPhe(3-Cl-4-CF3) = N[C@@H](CCc1ccc(C(F)(F)F)c(Cl)c1)C(=O)O; NPrPhe(4-CF3) = CCCN[C@@H](Cc1ccc(C(F)(F)F)cc1)C(=O)O; NMeAbu(4,4,4-F3) = CN[C@@H](CC(F)(F)F)C(=O)O; X15 = CCCN([C@@H](Cc1ccccc1)C(=O)[*:2])[*:1]; NMeGly(cPent) = CN[C@H](C(=O)O)C1CCCC1; Gly(cBu) = N[C@H](C(=O)O)C1CCC1; NMeD = CN[C@@H](CC(=O)O)C(=O)O; NMeL = CN[C@@H](CC(C)C)C(=O)O; Morpholide = C1CN(*)CCO1; NMeA = CN[C@@H](C)C(=O)O; Ac5c = NC1(C(=O)O)CCCC1; Aze = O=C(O)[C@@H]1CCN1; Sar = CNCC(=O)O

What was measured:
[1] = target: GDP-bound NRAS wild-type protein (Homo sapiens, UniProt P01111); assay: Binding to NRAS by surface plasmon resonance (SPR), KD and KD ratio to KRAS
Sequence of GDP-bound NRAS wild-type protein (P01111 whole entry): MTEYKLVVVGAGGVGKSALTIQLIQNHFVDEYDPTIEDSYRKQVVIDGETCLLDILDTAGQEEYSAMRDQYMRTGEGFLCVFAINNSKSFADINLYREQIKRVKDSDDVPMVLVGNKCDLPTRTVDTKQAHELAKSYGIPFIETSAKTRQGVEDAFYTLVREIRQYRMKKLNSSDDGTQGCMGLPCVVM
Procedure, shortened: (§1)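 Measured at 30°C: SPR with GDP-loaded, E. coli-expressed biotin-Avi RAS captured (~100–300 RU), ascending 75 s compound injections, HBS pH 7.4 with GDP, MgCl2, 4% DMSO. KD from 1:1 fit.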

[2] = tested on: human lung cancer strain NCI-H441; type: cell-based
Procedure, shortened: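 Signal came from […] measured per well once the reagent was added. Beforehand, cells were cultured at 37°C and 5% carbon dioxide on a compound series serially diluted in dimethyl sulfoxide.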

HRAS wild-type protein = HRAS wild-type protein (Homo sapiens, UniProt P01112); assay: Binding to HRAS by surface plasmon resonance (SPR), KD and KD ratio to KRAS
Sequence of HRAS wild-type protein (P01112 whole entry): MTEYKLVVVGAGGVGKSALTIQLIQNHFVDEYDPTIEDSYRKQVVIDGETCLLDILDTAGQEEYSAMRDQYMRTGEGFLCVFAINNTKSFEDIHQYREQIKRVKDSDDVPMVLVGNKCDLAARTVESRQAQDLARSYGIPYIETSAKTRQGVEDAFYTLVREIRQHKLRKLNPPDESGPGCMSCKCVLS
Procedure, shortened: as §1

[3] = ratio of KD for GDP-bound NRAS wild-type protein to KD for KRAS
[4] = ratio of KD for HRAS wild-type protein to KD for KRAS
[5] = ratio of KD value for GDP-bound NRAS wild-type protein to KD value for KRAS (SPR)
[6] = ratio of KD value for HRAS wild-type protein to KD value for KRAS (SPR)
[7] = ratio of the KD value with respect to GDP-bound NRAS wild-type protein to the KD value with respect to KRAS
[8] = ratio of the KD value with respect to HRAS wild-type protein to the KD value with respect to KRAS

| SMILES | NRAS /KRAS [1, 3] | IC50 [2] [nM] | HRAS /KRAS (HRAS wild-type protein; [4]) | NRAS /KRAS [1, 5] | HRAS /KRAS (HRAS wild-type protein; [6]) | NRAS /KRAS [1, 7] | HRAS /KRAS (HRAS wild-type protein; [8]) |
| --- | --- | --- | --- | --- | --- | --- | --- |
| CCO[C@@H]1C[C@H]2C(=O)NC3(CCC3)C(=O)N(C)[C@@H](C3CCCC3)C(=O)N(C)[C@H](C(=O)N(C)CC)CC(=O)N(C)[C@@H](CC3CCC3)C(=O)N[C@@H]([C@@H](C)CC)C(=O)N(C)CC(=O)N(C)[C@H]3C/C=C\CCN(C3=O)[C@@H](Cc3ccc(C(F)(F)F)cc3)C(=O)N(C)CC(=O)N[C@@H](CCc3ccc(C(F)(F)F)c(Cl)c3)C(=O)N2C1 [PP2826] | A (a compound having 10 or more and less than 20 is denoted as A) | 8.6 | A (a compound having 10 or more and less than 20 is denoted as A) | – | – | – | – |
| CC[C@H](C)[C@@H]1NC(=O)[C@H](CC(C)C)N(C)C(=O)C[C@@H](C(=O)N(C)C)N(C)C(=O)[C@H](C2CCCC2)N(C)C(=O)C2(CCC2)NC(=O)[C@@H]2C[C@@H](C)CN2C(=O)[C@H](CCc2cc(F)c(C(F)(F)F)c(F)c2)NC(=O)CN(C)C(=O)[C@H](Cc2ccc(C)cc2)N2CC/C=C\C[C@@H](C2=O)N(C)C(=O)CN(C)C1=O [PP1866] | – | 11.1 | – | A (a compound having 10 or more and less than 20 is denoted as A) | B (a compound having 3 or more and less than 10 is denoted as B) | – | – |
| CC[C@H](C)[C@@H]1NC(=O)[C@H](C2CC2)N(C)C(=O)C[C@@H](C(=O)N(C)CC)N(C)C(=O)[C@H](C2CCCC2)N(C)C(=O)C2(CC(C)(C)C2)NC(=O)[C@@H]2C[C@H](C)CN2C(=O)[C@H](CCc2ccc(C(F)(F)F)c(OC)c2)NC(=O)CN(C)C(=O)[C@H](Cc2ccc(C(F)(F)F)cc2)N2CC/C=C\C[C@@H](C2=O)N(C)C(=O)CN(C)C1=O [PP2007] | – | 14.9 | – | – | – | AA (a compound having 20 or more is denoted as AA) | B (a compound having 3 or more and less than 10 is denoted as B) |
| CCCN1C(=O)[C@@H]2CCN2C(=O)[C@H](C)N(C)C(=O)[C@H]([C@@H](C)CC)NC(=O)[C@H](CC(C)C)N(C)C(=O)C[C@@H](C(=O)N2CCOCC2)N(C)C(=O)[C@H](C2CCCC2)N(C)C(=O)C2(CCCC2)NC(=O)[C@@H]2CCCN2C(=O)[C@H](CCc2ccc(C(F)(F)F)c(Cl)c2)NC(=O)CN(C)C(=O)[C@@H]1Cc1ccccc1 [PP0216] ([NMeL]I[NMeA][Aze][X15][Sar][hPhe(3-Cl-4-CF3)]P[Ac5c][NMeGly(cPent)][NMeD]-Morpholide; lactam N-11) | C (A compound having a KD ratio of 0.1 or more and less than 3 is denoted as C) | 3 | B (a compound having 3 or more and less than 10 is denoted as B) | – | – | – | – |
| CCCN1C(=O)CN(C)C(=O)[C@@H]2CCN2C(=O)[C@H]([C@@H](C)CC)NC(=O)[C@H](CC(C)C)N(C)C(=O)C[C@@H](C(=O)N2CCOCC2)NC(=O)[C@H](C2CCCC2)N(C)C(=O)C2(CCCC2)NC(=O)[C@@H]2CCCN2C(=O)[C@H](CCc2ccc(C(F)(F)F)c(Cl)c2)NC(=O)CN(C)C(=O)[C@@H]1Cc1ccc(C(F)(F)F)cc1 [PP0337] ([NMeL]I[Aze][Sar][NPrPhe(4-CF3)][Sar][hPhe(3-Cl-4-CF3)]P[Ac5c][NMeGly(cPent)]D-Morpholide; lactam N-11) | B (a compound having 3 or more and less than 10 is denoted as B) | 333 | B (a compound having 3 or more and less than 10 is denoted as B) | – | – | – | – |
| CCCN1C(=O)CN(C)C(=O)CN(C)C(=O)[C@H]([C@@H](C)CC)NC(=O)[C@@H]2CCCCCCC[C@@](C)(NC(=O)[C@@H]3C[C@@H](OCC)CN3C(=O)[C@H](CCc3cc(F)c(C(F)(F)F)c(F)c3)NC(=O)CN(C)C(=O)[C@@H]1Cc1ccc(C(F)(F)F)cc1)C(=O)N(C)[C@@H](C1CCCC1)C(=O)N(C)[C@H](C(=O)N1CCOCC1)CC(=O)N2C [PP0898] | B (a compound having 3 or more and less than 10 is denoted as B) | 120 | B (a compound having 3 or more and less than 10 is denoted as B) | – | – | – | – |
| CCO[C@@H]1C[C@H]2C(=O)NC3(CC(C)(C)C3)C(=O)N(C)[C@@H](C3CCCC3)C(=O)N(C)[C@H](C(=O)N(C)C)CC(=O)N(C)[C@@H](CC(C)C)C(=O)N[C@@H]([C@@H](C)CC)C(=O)N(C)CC(=O)N(C)[C@H]3C/C=C\CCN(C3=O)[C@@H](Cc3ccc(C)cc3F)C(=O)N(C)CC(=O)N[C@@H](CCc3ccc(C(F)(F)F)c(OC)c3)C(=O)N2C1 [PP2688] | A (a compound having 10 or more and less than 20 is denoted as A) | 6.9 | B (a compound having 3 or more and less than 10 is denoted as B) | – | – | – | – |
| C#CC[C@H]1C(=O)N[C@@H]([C@@H](C)CC)C(=O)N(C)CC(=O)N(C)[C@H]2C/C=C\CCN(C2=O)[C@@H](Cc2ccc(C(F)(F)F)cc2)C(=O)N(C)CC(=O)N[C@@H](CCc2ccc(C(F)(F)F)c(Cl)c2)C(=O)N2C[C@H](OCC)C[C@H]2C(=O)NC2(CC(C)(C)C2)C(=O)N(C)[C@@H](C2CCCC2)C(=O)N(C)[C@H](C(=O)N(C)CC)CC(=O)N1C [PP2844] | A (a compound having 10 or more and less than 20 is denoted as A) | 7.6 | A (a compound having 10 or more and less than 20 is denoted as A) | – | – | – | – |
| CCO[C@@H]1C[C@H]2C(=O)NC3(CC(F)(F)C3)C(=O)N(C)[C@@H](C(CC)CC)C(=O)N(C)C(C(C)C)CC(=O)N(C)[C@@H](CC)C(=O)N[C@@H]([C@@H](C)CC)C(=O)N(C)CC(=O)N(C)[C@H]3C/C=C\CCN(C3=O)[C@@H](Cc3ccc(C(F)(F)F)cc3)C(=O)N(C)CC(=O)N[C@@H](CCc3cc(F)c(C(F)(F)F)c(F)c3)C(=O)N2C1 (stereo partly drawn) [PP1591] | – | 85.4 | – | A (a compound having 10 or more and less than 20 is denoted as A) | A (a compound having 10 or more and less than 20 is denoted as A) | – | – |
| CCC[C@H]1C(=O)N[C@@H]([C@@H](C)CC)C(=O)N[C@@H](C)C(=O)N(C)[C@H]2C/C=C\CCN(C2=O)[C@@H](Cc2ccc(C(F)(F)F)cc2)C(=O)N(C)CC(=O)N[C@@H](CCc2cc(F)c(C(F)(F)F)c(F)c2)C(=O)N2C[C@H](OCC)C[C@H]2C(=O)NC2(CC(C)(C)C2)C(=O)N(C)[C@@H](C2CCCC2)C(=O)N(C)[C@H](C(=O)N(C)C)CC(=O)N1C [PP1927] | – | 23.5 | – | – | – | A (a compound having 10 or more and less than 20 is denoted as A) | A (a compound having 10 or more and less than 20 is denoted as A) |
| CC[C@H](C)[C@@H]1NC(=O)[C@H](CC)N(C)C(=O)C[C@@H](C(=O)N(C)C)N(C)C(=O)[C@H](C2CCCC2)N(C)C(=O)C2(CCC2)NC(=O)[C@@H]2CCCN2C(=O)[C@H](CCc2cc(C)c(Cl)c(C)c2)NC(=O)CN(C)C(=O)[C@H](Cc2ccc(C(F)(F)F)cc2)N2CC/C=C\C[C@@H](C2=O)N(C)C(=O)CN(C)C1=O [PP1822] | – | 107 | – | A (a compound having 10 or more and less than 20 is denoted as A) | B (a compound having 3 or more and less than 10 is denoted as B) | – | – |
| CCCN1C(=O)[C@@H]2CCN2C(=O)[C@H](C)N(C)C(=O)[C@H](C2CCC2)NC(=O)[C@H](CC(C)C)N(C)C(=O)C[C@@H](C(=O)N2CCOCC2)N(C)C(=O)[C@H](C2CCCC2)N(C)C(=O)C2(CCCC2)NC(=O)[C@@H]2CCCN2C(=O)[C@H](CCc2ccc(C(F)(F)F)c(Cl)c2)NC(=O)CN(C)C(=O)[C@@H]1Cc1ccc(C(F)(F)F)cc1 [PP0271] ([NMeL][Gly(cBu)][NMeA][Aze][NPrPhe(4-CF3)][Sar][hPhe(3-Cl-4-CF3)]P[Ac5c][NMeGly(cPent)][NMeD]-Morpholide; lactam N-11) | C (A compound having a KD ratio of 0.1 or more and less than 3 is denoted as C) | 6.5 | B (a compound having 3 or more and less than 10 is denoted as B) | – | – | – | – |
| CCCN1C(=O)CN(C)C(=O)CN(C)C(=O)[C@H]([C@@H](C)CC)NC(=O)[C@H](CC(F)(F)F)N(C)C(=O)C[C@@H](C(=O)N2CCOCC2)N(C)C(=O)[C@H](C2CCCC2)N(C)C(=O)C2(CCCC2)NC(=O)[C@@H]2CCCN2C(=O)[C@H](CCc2ccc(C(F)(F)F)c(Cl)c2)NC(=O)CN(C)C(=O)[C@@H]1Cc1ccc(C(F)(F)F)cc1 [PP0187] ([NMeAbu(4,4,4-F3)]I[Sar][Sar][NPrPhe(4-CF3)][Sar][hPhe(3-Cl-4-CF3)]P[Ac5c][NMeGly(cPent)][NMeD]-Morpholide; lactam N-11) | B (a compound having 3 or more and less than 10 is denoted as B) | 3 | C (A compound having a KD ratio of 0.1 or more and less than 3 is denoted as C) | – | – | – | – |
| CCC[C@H]1C(=O)N[C@@H]([C@@H](C)CC)C(=O)N(C)CC(=O)N(C)[C@H]2C/C=C\CCN(C2=O)[C@@H](Cc2ccc(C)cc2)C(=O)N(C)CC(=O)N[C@@H](CCc2ccc3c(C)cn(C)c3c2)C(=O)N2C[C@H](OCC)C[C@H]2C(=O)NC2(CC(C)(C)C2)C(=O)N(C)[C@@H](C2CCCC2)C(=O)N(C)[C@H](C(=O)N(C)C)CC(=O)N1C [PP2899] | A (a compound having 10 or more and less than 20 is denoted as A) | 18.8 | B (a compound having 3 or more and less than 10 is denoted as B) | – | – | – | – |
